From BindingDB's records for doi:10.1016/s0960-894x(01)00654-0 (Merck Research Laboratories, 2001)

Key:
[1] = target: T1, C-C chemokine receptor type 5 (Homo sapiens, UniProt P51681); assay: ChEBML_39507
Excerpt: (§1) Binding affinity against C-C chemokine receptor type 5 stably expressed in Chinese hamster ovary (CHO) cells using [125I]-MIP-1 alpha as the radioligand

[2] = target: T1, C-C chemokine receptor type 5; assay: as §1

T1 sequence (P51681 whole entry): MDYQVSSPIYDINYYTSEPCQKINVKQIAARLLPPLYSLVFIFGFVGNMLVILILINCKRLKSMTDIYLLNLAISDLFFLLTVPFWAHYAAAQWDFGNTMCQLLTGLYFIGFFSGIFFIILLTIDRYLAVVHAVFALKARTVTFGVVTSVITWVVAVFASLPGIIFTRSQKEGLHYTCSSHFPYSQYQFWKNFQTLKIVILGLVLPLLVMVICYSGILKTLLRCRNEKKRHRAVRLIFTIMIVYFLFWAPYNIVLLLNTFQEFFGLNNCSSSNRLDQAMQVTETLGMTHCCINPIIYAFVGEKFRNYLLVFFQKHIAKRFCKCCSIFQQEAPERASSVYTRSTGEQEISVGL

## O=c1[nH]c(Cc2c[nH]c3ccccc23)c(O)n1CC(CCN1CCC(c2ccccc2)CC1)c1cccc(Cl)c1 [(R)-3-[2-(3-Chloro-phenyl)-4-(4-phenyl-piperidin-1-yl)-butyl]-5-(1H-indol-3-ylmethyl)-imidazolidine-2,4-dione]
[1]
  IC50: 25 nM
[2]
  IC50: 25 nM
